Measured values taken from US20080167272A1, “Thalidomide metabolites and methods of use” (Auckland Uniservices Limited, priority 2005, published 2008).

Key:
TNF = test: Modulation of TNF production in Colon 38 tumour-bearing mice (serum and tumour, ELISA); assay type: in vivo; settings: 3 h; for effect on DMXAA-induced tumour TNF level: FIG. 3B
Method: Mice with Colon 38 tumours, approximately 5-7 mm in diameter, were divided into groups of 5. One group was untreated. Other groups were treated with DMXAA (25 mg/kg) alone; DMXAA (25 mg/kg)+thalidomide (100 mg/kg), DMXAA (25 mg/kg)+PG (100 mg/kg), DMXAA (25 mg/kg)+PiG (100 mg/kg), DMXAA (25 mg/kg)+CG (100 mg/kg), DMXAA (25 mg/kg)+thalidomide (20 mg/kg), DMXAA (25 mg/kg)+CG (20 mg/kg), and thalidomide, PG, PiG or CG only at 100 and 200 mg/kg. Three hours after treatment, mice were anaesthetized with halothane (NZ Pharmacology Ltd., Christchurch, New Zealand), and blood was collected from the ocular sinus and tumours were excised. Blood was coagulated overnight at 4° C., and then centrifuged for 30 min at 2,000×g and 4° C., and the serum was removed and stored at −80° C. until use. Tumour tissues were weighed and homogenized in 1.5 ml α-minimal essential medium (Gibco, Grand Island, N.Y., USA). The homogenates were centrifuged (2,000×g, 30 min, 4° C.) and supernatant was removed and re-centrifuged (14,000×g, 30 min, 4° C.). The final supernatants were removed and kept at −80° C. until use. TNF levels in serum and supernatants derived from tumour homogenates were assayed for TNF as described in section 4 (below).
TNF was assayed using a commercially available ELISA kit (OpEIA human or murine TNF kit, PharMingen, San Diego, Calif., USA), according to the manufacturer's instructions. Briefly, samples (100 μl/well) in duplicate together with a serial dilution of TNF (31.25-2000 pg/ml) for the standard curve, were added to flat-bottom 96-well plates pre-coated with immobilised monoclonal anti-TNF antibody and incubated at room temperature for 2 h. The wells were then washed, biotinylated polyclonal antibody to TNF was added, followed by peroxidase-labelled streptavidin, and incubated at room temperature for 1 h. The wells were washed again, and the substrate, tetramethylbenzidine and hydrogen peroxide was added and after 10 min the reaction was stopped with 2 N sulphuric acid. The absorbance at 450 nm was determined using a microtitre plate reader.

ECV304 cells = test: MTT cytotoxicity assay; assay type: cell-based, human; settings: 18 h, 2-250/g/ml, vs untreated or DMSO-treated cultures
Method: The 3-(4,5-dimethylthiazol-2-yl)-2,5-diphenyl tetrazolium bromide (MTT) assay, which measures mitochondrial metabolic activity, was used to determine cell viability (Mosmann, 1983). Cells (4×10^3/well) were cultured with various concentrations of thalidomide, CG, PG and PiG in a final volume of 100 μl M199 medium (Gibco, Grand Island, N.Y., USA) supplemented with 10% foetal bovine serum ([…] streptomycin sulphate and 100 units/ml penicillin-G (Sigma, St Louis, Calif., USA) in flat-bottomed 96-well plates at 37° C. at 5% CO2 for 18 h. At the end of the incubation period, 10 μl of MTT (Sigma, St. Louis, Mo., 5 mg/ml in PBS) was added to each well, and the cells were further incubated for 2 h. The supernatants were then removed and the formazan crystals in the cells were dissolved by the addition of 100 μl of DMSO per well, and the absorbance at 590 nm was read using a plate reader. Each concentration of drug was tested in triplicate wells, and the mean ±standard error of the mean (SEM) was calculated.

[1] = Stability of CG in PBS at different pH (HPLC); assay type: physicochemical
Method: CG (50 μM) with 60 μM of phenacetin (as an internal standard) at pH 3.5, 6.8, 7.1, 7.4, 7.7 and 8 in 8 mm clear polyethylene starburst conical snap vials (Alltech, Deerfield, Ill., USA), was incubated in the autosampler (Waters Associates, Milford, Mass., USA) at 37° C. Aliquots (50 μl) of the solutions were then automatically loaded at 0, 6, 12, 18 and 24 hours after incubation onto a Waters Breeze chromatograph (Waters Associates, Milford, Mass., USA) which consisted of a Model 717plus autosampler, Model 1525 binary pump and Model 2487 dual wavelength absorbance detector.
Compounds were separated using a previously described (Chung et al, 2004) HPLC assay for thalidomide using a 100×4.6 mm stainless steel Luna 5 μm Phenylhexyl column (Phenomenex, Torrance, Calif., USA) and a mobile phase (Milli Q water:acetonitrile 10:1.3 v/v) that was pumped at a flow rate of 2 ml/min. Thalidomide and phenacetin were detected at ultraviolet wavelengths of 220 and 248 nm, respectively. The retention times of phenacetin and thalidomide and were 13 and 11 min, respectively. Data acquisition and integration was achieved using Breeze™ Software, Milford, Calif., USA. Each HPLC run included standard curves of thalidomide (0.6-100 μM) or CG (0.2-50 μM) with phenacetin (60 μM) as the internal standard in PBS. […] The r^2 of calibration curves of thalidomide was 0.9995, and for CG calibration curves was 0.9999. The intra-assay recovery was 90-110% (n=8) and the CV was 5-9% (n=4), while the inter-assay recovery was 96-104% (n=15) and the CV was 2-4% (n=6).
To construct the calibration curve, the peak-area ratios to the internal standard were plotted against thalidomide concentration and the best-fit straight line was obtained by linear regression analysis. The correlation coefficient of the calibration curves had r^2 values of greater than 0.9995. The thalidomide/phenacetin peak ratio was determined for all samples and the concentration of thalidomide in each sample was determined from the calibration curve.
The ratio of the area of the thalidomide peak or the CG peak to that of the phenacetin peak in the HPLC chromatographs then calculated and the concentration of thalidomide and CG was determined using the calibration curve. The percentage degradation of CG was calculated as: [1-(CG concentration after incubation/starting concentration)]×100.

O=C1CCC(NC(=O)c2ccccc2C(=O)O)C(=O)N1 (stereo not shown) [CG, 2-{[(2,6-Dioxo-3-piperidinyl)amino]carbonyl}benzoic acid]
effect on DMXAA-induced tumour TNF level (TNF; 20 mg/kg co-administered with DMXAA 25 mg/kg): significantly increased | effect on DMXAA-induced serum TNF level (TNF; 100 mg/kg co-administered with DMXAA 25 mg/kg, FIG. 3A): decreased | effect on DMXAA-induced tumour TNF level (TNF; 100 mg/kg co-administered with DMXAA 25 mg/kg): significantly increased | toxicity (cell viability, MTT) (ECV304 cells): No toxicity was observed | stability in solution ([1]; low pH): unstable | CG remaining in the solution after 24 h ([1]; pH 3.5, 37° C.): 21.5% | CG transformed into thalidomide ([1]; pH 3.5, 24 h incubation): 42% | thalidomide in CG solutions after incubation ([1]; pH 6.8, 7.1, 7.4, 7.7 or 8): not detected | CG remaining in solution after 24 h ([1]; pH 6.8, 37° C.): 81.75% | CG remaining in solution after 24 h ([1]; pH 7.1, 37° C.): 50.1% | CG remaining in solution after 24 h ([1]; pH 7.4, 37° C.): 46.6% | CG remaining in the solution after 24 h ([1]; pH 7.7, 37° C.): 8.6% | CG remaining in the solution after 24 h ([1]; pH 8, 37° C.): 0% | stability in solution ([1]; pHs between 6.8-7.4): stable | stability compared with thalidomide ([1]; physiological conditions): more stable than thalidomide | CG degraded ([1]; physiological conditions, after 6 h): 1.3-20%
